Experimental data as given in patent publication US9580430B2, “9H-pyrimido[4,5-B]indoles and related analogs as BET bromodomain inhibitors” (THE REGENTS OF THE UNIVERSITY OF MICHIGAN, priority 2014, dated 2017).
Read-outs that look alike come from different tables or passages of the source.

Key:
recombinant BRD4 BD2 = target: T1, recombinant BRD4 BD2 (Homo sapiens, UniProt O60885); assay: Competitive fluorescence-polarization (FP) binding assay, BRD4 BD2; conditions: for Ki: read-out: Binding affinities (FP) BRD4BD2 Ki; on IC50 (nM) BRD4 BD2: probe 1.5 nM
T1 construct: for recombinant BRD4 BD1 and BRD4 BD2 proteins
Method: (§1) Fluorescence Polarization (FP) competitive binding studies were carried out using a FAM labeled fluorescent probe (ZBA248 or BRD-1F) to determine binding affinities of representative Compounds of the Disclosure for recombinant BRD4 BD1 and BRD4 BD2 proteins. For example, equilibrium dissociation constants (Kd) values of ZBA248 to these […] proteins were determined from protein saturation experiments by monitoring the total fluorescence polarization of mixtures composed with the fluorescent probe at a fixed concentration and proteins with increasing concentrations up to full saturation. Serial dilutions of testing protein were mixed with ZBA248 to a final volume of 200 μl in the assay buffer. […] Plates were incubated at room temperature for 30 minutes with gentle shaking to assure equilibrium. […] Kd values of ZBA248 were calculated by fitting the sigmoidal dose-dependent FP increases as a function of protein concentrations using Graphpad Prism 6.0 software (Graphpad Software, San Diego, Calif.).
(§2) The IC50 and Ki values of representative Compounds of the Disclosure were determined in a competitive binding experiment as described above. Mixtures of 10 μl of the tested compounds in assay buffer with 40% Ethylene Glycol and 190 μl of preincubated protein/probe complex solution in the assay buffer (100 mM potassium phosphate, pH 6.5, 0.01% Triton X-100) were added into assay plates which were incubated at room temperature for 30 minutes with gentle shaking. Final concentrations of proteins were 10 and 6 nM in assays for BD1 and BD2 of BRD4, respectively. […] FP values were measured as described above. IC50 values were determined by nonlinear regression fitting of the competition curves.

recombinant BRD4 BD1 = target: T2, recombinant BRD4 BD1 (Homo sapiens, UniProt O60885); assay: Competitive fluorescence-polarization (FP) binding assay, BRD4 BD1; conditions: for Ki: read-out: Binding affinities (FP) BRD4BD1 Ki; on IC50 (nM) BRD4 BD1: probe 1.5 nM
T2 construct: for recombinant BRD4 BD1 and BRD4 BD2 proteins
Method: as §1, §2

MDA-MB-436 = assay: Cell growth inhibition, MDA-MB-436 breast cancer cells (WST-8); type: cell-based; conditions: Homo sapiens, 4 days
Method: All the breast cancer cell lines were obtained from the ATCC. Cell viability was determined using the WST-8 (2-(2-methoxy-4-nitrophenyl)-3-(4-nitrophenyl)-5-(2,4-disulfophenyl)-2H-tetrazolium, monosodium salt) based Cell Counting-8 Kit (Dojindo Molecular Technologies, Inc., Rockville, Md.) according to the manufacture's instruction. […] The absorbance was measured at 450 nm using a SPECTRAmax PLUS plate reader (Molecular Devices, Sunnyvale, Calif.). The IC50 was calculated using the GraphPad Prism 5 software.

MOLM-13 = assay: Cell growth inhibition, MOLM-13 leukemia cells (CellTiter-Glo); type: cell-based; conditions: Homo sapiens, MOLM-13, 96 h; 4 days; read-out: IC50 (nM) MOLM-13 Cell Line (CellTiter-Glo assay)
Method: Cell growth inhibitory activity of representative Compounds of the Disclosure was determined using CellTiter-Glo® Luminescent Cell Viability Assay. […] Cell viability was determined using the CellTiter-Glo® Luminescent Cell Viability Assay Kit (Promega, Madison, Wis.) according to the manufacture's instruction. Briefly, a volume of CellTiter-Glo® Reagent equal to the volume of cell culture medium was added to each well, and then the plates were incubated at room temperature for 10-20 minutes. The luminescent signal was measured using a Tecan Infinite M1000 multimode microplate reader (Tecan, Morrisville, N.C.). The half maximal inhibitory concentration (IC50) was calculated using the GraphPad Prism 5 software (GraphPad Software, La Jolla, Calif.).

[1] = FP competitive binding, BRD4 BD2, read-out: Binding affinities (FP) BRD4BD2 IC50
[2] = FP competitive binding, BRD4 BD2
[3] = FP competitive binding, BRD4 BD1, read-out: Binding affinities (FP) BRD4BD1 IC50
[4] = FP competitive binding, BRD4 BD1
[5] = 96 h, MDA-MB-436 cells, read-out: Cellular data MDA-MB-436 IC50
[6] = competitive FP assay, protein 6 nM, probe […], read-out: IC50 (nM) BRD4 BD2
[7] = competitive FP assay, protein 10 nM, probe […], read-out: IC50 (nM) BRD4 BD1

| SMILES | IC50 (recombinant BRD4 BD2; [1]) [nM] | Ki (recombinant BRD4 BD2; [2]) [nM] | IC50 (recombinant BRD4 BD1; [3]) [nM] | Ki (recombinant BRD4 BD1; [4]) [nM] | IC50 (MDA-MB-436; [5]) [nM] | IC50 (recombinant BRD4 BD2; [6]) [nM] | IC50 (recombinant BRD4 BD1; [7]) [nM] | IC50 (MOLM-13) [nM] | IC50 (MDA-MB-436; MDA-MB-436, 96 h, read-out: IC50 (nM) MDA-MB-436 Cell Line (WST assay)) [nM] |
| --- | --- | --- | --- | --- | --- | --- | --- | --- | --- |
| COc1nc2c(cc1-c1c(C)noc1C)[nH]c1nc(C)nc(N(C)c3nn(C)c4ncccc34)c12 [compound 318, 7-(3,5-dimethylisoxazol-4-yl)-6-methoxy-N,2-dimethyl-N-(1-methyl-1H-pyrazolo[3,4-b]pyridin-3-yl)-9H-pyrido[2′,3′:4,5]pyrrolo[2,3-d] pyrimidin-4-amine] | 108 | 34 | 35 | 12 | 299 | – | – | – | – |
| COc1nc2c(cc1-c1c(C)noc1C)[nH]c1nc(C)nc(Nc3cc(C(C)(C)C)nn3C)c12 [compound 314, N-(3-(tert-butyl)-1-methyl-1H-pyrazol-5-yl)-7-(3,5-dimethylisoxazol-4-yl)-6-methoxy-2-methyl-9H-pyrido[2′,3′:4,5]pyrrolo [2,3-d]pyrimidin-4-amine] | 986 | 209 | 457 | 146 | > 2000 | – | – | – | – |
| COc1cc(C)cc(Nc2nc(C)nc3[nH]c4cc(-c5c(C)noc5C)c(OC)cc4c23)c1 [Cpd. No. 218, 7-(3,5-dimethylisoxazol-4-yl)-6-methoxy-N-(3-methoxy-5-methylphenyl)-2-methyl-9H-pyrimido[4,5-b]indol-4-amine] | – | – | – | – | – | 15 | 17 | 9340 | – |
| COc1nc2c(cc1-c1c(C)noc1C)[nH]c1nc(C)nc(N(C)c3cccc(C)c3)c12 [compound 317, 7-(3,5-dimethylisoxazol-4-yl)-6-methoxy-N,2-dimethyl-N-(m-tolyl)-9H-pyrido[2′,3′:4,5]pyrrolo[2,3-d] pyrimidin-4-amine] | 139 | 44 | 74 | 27 | 1140 | – | – | – | – |
| COc1nc2c(cc1-c1c(C)noc1C)[nH]c1nc(C)nc(N(C)c3c(C)cnn3C(C)C)c12 [compound 319, 7-(3,5-dimethylisoxazol-4-yl)-N-(1-isopropyl-4-methyl-1H-pyrazol-5-yl)-6-methoxy-N,2-dimethyl-9H-pyrido[2′,3′:4,5]pyrrolo[2,3-d] pyrimidin-4-amine] | 92 | 27 | 102 | 38 | 646 | – | – | – | – |
| COc1nc2c(cc1-c1c(C)noc1C)[nH]c1nc(C)nc(Nc3nn(C)c4ncccc34)c12 [compound 311, 7-(3,5-dimethylisoxazol-4-yl)-6-methoxy-2-methyl-N-(1-methyl-1H-pyrazolo[3,4-b]pyridin-3-yl)-9H-pyrido[2′,3′:4,5]pyrrolo [2,3-d]pyrimidin-4-amine] | > 1000 | – | 1090 | 602 | 1100 | – | – | – | – |
| COc1nc2c(cc1-c1c(C)noc1C)[nH]c1nc(C)nc(Nc3cccc(C)c3)c12 [compound 313, 7-(3,5-dimethylisoxazol-4-yl)-6-methoxy-2-methyl-N-(m-tolyl)-9H-pyrido[2′,3′:4,5]pyrrolo[2,3-d] pyrimidin-4-amine] | 4070 | 1140 | 4070 | 1200 | > 2000 | – | – | – | – |
| COc1nc2c(cc1-c1c(C)noc1C)[nH]c1nc(C)nc(Nc3c(C)cnn3C(C)C)c12 [compound 312, 7-(3,5-dimethylisoxazol-4-yl)-N-(1-isopropyl-4-methyl-1H-pyrazol-5-yl)-6-methoxy-2-methyl-9H-pyrido[2′,3′:4,5]pyrrolo[2,3-d] pyrimidin-4-amine] | 346 | 101 | 378 | 140 | 1060 | – | – | – | – |
| COc1nc2c(cc1-c1c(C)noc1C)[nH]c1nc(C)nc(Nc3cc(C)nn3C(C)(C)C)c12 [Cpd. No. 310, N-(1-(tert-butyl)-3-methyl-1H-pyrazol-5-yl)-7-(3,5-dimethylisoxazol-4-yl)-6-methoxy-2-methyl-9H-pyrido[2′,3′:4,5]pyrrolo[2,3-d] pyrimidin-4-amine] | 313 | 113 | 378 | 143 | 1280 | – | – | – | – |
| COc1nc2c(cc1-c1c(C)noc1C)[nH]c1nc(C)nc(N(C)c3cc(C4CC4)nn3C)c12 [compound 320, N-(3-cyclopropyl-1-methyl-1H-pyrazol-5-yl)-7-(3,5-dimethylisoxazol-4-yl)-6-methoxy-N,2-dimethyl-9H-pyrido[2′,3′:4,5]pyrrolo[2,3-d] pyrimidin-4-amine] | 7 | 1.3 | 10.2 | 1.8 | 85 | – | – | – | – |
| COc1cc2c(cc1-c1c(C)noc1C)[nH]c1nc(C)nc(Nc3cccc4cccnc34)c12 [Cpd. No. 210, 7-(3,5-dimethylisoxazol-4-yl)-6-methoxy-2-methyl-N-(quinolin-8-yl)-9H-pyrimido[4,5-b]indol-4-amine] | – | – | – | – | – | > 1000 | > 1000 | 1130 | – |
| COc1nc2c(cc1-c1c(C)noc1C)[nH]c1nc(C)nc(N(C)c3cc(C)nn3C(C)(C)C)c12 [compound 316, N-(1-(tert-butyl)-3-methyl-1H-pyrazol-5-yl)-7-(3,5-dimethylisoxazol-4-yl)-6-methoxy-N,2-dimethyl-9H-pyrido[2′,3′:4,5]pyrrolo [2,3-d]pyrimidin-4-amine] | 311 | 106 | 317 | 106 | 1020 | – | – | – | – |
| COc1nc2c(cc1-c1c(C)noc1C)[nH]c1nc(C)nc(N(C)C3CCCC3)c12 [compound 321, N-cyclopentyl-7-(3,5-dimethylisoxazol-4-yl)-6-methoxy-N,2-dimethyl-9H-pyrido[2′,3′:4,5]pyrrolo[2,3-d] pyrimidin-4-amine] | 796 | 239 | 482 | 171 | 4430 | – | – | – | – |
| COc1cc2c(cc1-c1c(C)noc1C)[nH]c1nc(C)nc(Sc3cccc(C(C)(C)C)c3)c12 [Cpd. No. 27, 4-(4-((3-(tert-butyl)phenyl)thio)-6-methoxy-2-methyl-9H-pyrimido[4,5-b]indol-7-yl)-3,5-dimethylisoxazole] | – | – | – | – | – | > 1000 | > 1000 | – | – |
| COc1nc2c(cc1-c1c(C)noc1C)[nH]c1nc(C)nc(N(C)c3cc(C(C)(C)C)nn3C)c12 [compound 315, N-(3-(tert-butyl)-1-methyl-1H-pyrazol-5-yl)-7-(3,5-dimethylisoxazol-4-yl)-6-methoxy-N,2-dimethyl-9H-pyrido[2′,3′:4,5]pyrrolo[2,3-d] pyrimidin-4-amine] | 16 | 4.7 | 28 | 7.8 | 164 | – | – | – | – |
| COc1cc2c(cc1-c1c(C)noc1C)[nH]c1nc(C)nc(Nc3sc(-c4ncco4)nc3-c3ccccc3)c12 [Cpd. No. 6, N-(7-(3,5-Dimethylisoxazol-4-yl)-6-methoxy-2-methyl-9H-pyrimido[4,5-b]indol-4-yl)-2-(oxazol-2-yl)-4-phenylthiazol-5-amine] | – | – | – | – | – | – | – | 52.6 | 1520 |
| COc1cc2c3c(N(C)c4cc(C5CC5)nn4C4CN(C)C4)nc(C)nc3n(C)c2cc1-c1c(C)noc1C [compound 258, N-(3-Cyclopropyl-1-(1-methylazetidin-3-yl)-1H-pyrazol-5-yl)-7-(3,5-dimethyl-isoxazol-4-yl)-6-methoxy-N,2,9-trimethyl-9H-pyrimido[4,5-b]indol-4-amine] | – | – | – | – | – | 2.8 | 8.1 | – | – |
| COc1cc2c(cc1-c1c(C)noc1C)[nH]c1nc(C)nc(Sc3c[nH]c4ccccc34)c12 [Cpd. No. 26, 4-(4-((1H-indol-3-yl)thio)-6-methoxy-2-methyl-9H-pyrimido[4,5-b]indol-7-yl)-3,5-dimethylisoxazole] | – | – | – | – | – | > 1000 | > 1000 | – | – |
